Source: patent publication US20110081315A1, “NOVEL MACROCYCLIC INHIBITORS OF HEPATITIS C VIRUS REPLICATION” (INTERMUNE, INC., priority 2009, published 2011)
pEC50, pIC50: −log10 of the molar value.

Experiments:
[1] = biological target: NS3/NS4 complexes (Hepatitis C virus genotype 1a, UniProt P27958); assay: NS3/NS4 inhibition assay (IC50); format: biochemical; details: NS3/NS4 activity; 23° C., 25 μM NS4A peptide
Summary of the method: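 Inhibitory concentrations against the NS3/NS4 complex are determined at 23° C. in pH 7.5 buffer (50 mM Tris-HCl) containing 25 μM NS4A peptide, 0.6 mM lauryldimethylamine oxide, 10 mM dithiothreitol and 15% glycerol. EC50 values derive from the hepatitis C replicon assay.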

[2] = test system: hepatitis C replicon; assay: hepatitis C replicon EC50 assay; format: cell-based; details: Hepatitis C virus; hepatitis C replicon; read-out: EC50
Summary of the method: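 Replicon EC50 determined per a referenced patent protocol; assays run at ambient temperature (23° C.) in 50 mM Tris-HCl pH 7.5 with 15% glycerol, 0.6 mM LDAO, 25 μM NS4A peptide and 10 mM DTT.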

Sequence of NS3/NS4 complexes (P27958 1027-1657, one chain of several): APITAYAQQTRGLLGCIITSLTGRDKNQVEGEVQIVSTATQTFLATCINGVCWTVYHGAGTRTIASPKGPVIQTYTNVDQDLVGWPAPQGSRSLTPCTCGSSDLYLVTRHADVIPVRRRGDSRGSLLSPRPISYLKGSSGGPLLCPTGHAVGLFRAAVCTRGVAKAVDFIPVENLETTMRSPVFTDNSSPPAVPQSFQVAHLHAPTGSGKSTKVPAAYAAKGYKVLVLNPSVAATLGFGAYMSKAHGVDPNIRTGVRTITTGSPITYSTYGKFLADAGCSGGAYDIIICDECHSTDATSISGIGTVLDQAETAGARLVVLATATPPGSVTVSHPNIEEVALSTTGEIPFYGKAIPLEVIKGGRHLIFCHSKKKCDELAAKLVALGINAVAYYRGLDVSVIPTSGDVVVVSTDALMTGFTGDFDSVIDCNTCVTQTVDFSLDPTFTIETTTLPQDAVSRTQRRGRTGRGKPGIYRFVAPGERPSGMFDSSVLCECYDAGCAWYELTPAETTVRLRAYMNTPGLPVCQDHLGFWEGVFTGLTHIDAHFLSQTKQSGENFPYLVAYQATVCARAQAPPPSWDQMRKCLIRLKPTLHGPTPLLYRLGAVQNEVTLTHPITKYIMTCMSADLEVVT

Compound | pIC50 [1] | pEC50 [2]
CC(C)c1csc(-c2cccc3c2nc(O[C@@H]2C[C@H]4C(=O)N[C@]5(C(=O)NS(=O)(=O)N(C)C)C[C@H]5/C=C\CCCCC[C@H](NC(=O)OC(C)(C)C)C(=O)N4C2)n3C(C)C)n1 [Compound 1433] | > 8.00 | > 8.00
CC(C)n1c(O[C@@H]2C[C@H]3C(=O)N[C@]4(C(=O)NS(=O)(=O)C5CC5)C[C@H]4/C=C\CCCCC[C@H](NC(=O)OC(C)(C)C)C(=O)N3C2)nc2c(-c3nc(C4CCCC4)cs3)cccc21 [Compound 1434] | > 8.00 | > 8.00
CC(C)c1coc(-c2cccc3c2nc(O[C@@H]2C[C@H]4C(=O)N[C@]5(C(=O)NS(=O)(=O)N(C)C)C[C@H]5/C=C\CCCCC[C@H](NC(=O)OC(C)(C)C)C(=O)N4C2)n3C(C)C)n1 [Compound 1435] | > 8.00 | > 8.00
Cc1cc(-c2nc(C(C)C)cs2)c2nc(O[C@@H]3C[C@H]4C(=O)N[C@]5(C(=O)NS(=O)(=O)N(C)C)C[C@H]5/C=C\CCCCC[C@H](NC(=O)OC(C)(C)C)C(=O)N4C3)n(C(C)C)c2c1 [Compound 1436] | > 8.00 | 7.00 to 8.00
CC1(S(=O)(=O)NC(=O)[C@@]23C[C@H]2/C=C\CCCCC[C@H](Nc2ccccc2)C(=O)N2C[C@H](n4nc5ccccc5n4)C[C@H]2C(=O)N3)CC1 [Compound 1501] | 7.00 to 8.00 | < 7.00
CC1(S(=O)(=O)NC(=O)[C@@]23C[C@H]2/C=C\CCCCC[C@H](Nc2ccccc2)C(=O)N2C[C@H](n4nnc5ccccc54)C[C@H]2C(=O)N3)CC1 [Compound 1502] | > 8.00 | < 7.00
CC1(S(=O)(=O)NC(=O)[C@@]23C[C@H]2/C=C\CCCCC[C@H](Nc2ccccc2)C(=O)N2C[C@H](n4ncc(-c5ccccc5)n4)C[C@H]2C(=O)N3)CC1 [Compound 1503] | > 8.00 | < 7.00
CC1(S(=O)(=O)NC(=O)[C@@]23C[C@H]2/C=C\CCCCC[C@H](Nc2ccccc2)C(=O)N2C[C@H](n4cc(-c5ccccc5)nn4)C[C@H]2C(=O)N3)CC1 [Compound 1504] | 7.00 to 8.00 | < 7.00
CC1(S(=O)(=O)NC(=O)[C@@]23C[C@H]2/C=C\CCCCC[C@H](Nc2ccccc2)C(=O)N2C[C@H](n4nc(Br)c(-c5ccccc5)n4)C[C@H]2C(=O)N3)CC1 [Compound 1505] | > 8.00 | < 7.00
COc1ccc(-c2nn([C@@H]3C[C@H]4C(=O)N[C@]5(C(=O)NS(=O)(=O)C6(C)CC6)C[C@H]5/C=C\CCCCC[C@H](Nc5ccccc5)C(=O)N4C3)nc2-c2nccs2)cc1 [Compound 1506] | > 8.00 | 7.00 to 8.00
COc1ccc2c(O[C@@H]3C[C@H]4C(=O)N[C@]5(C(=O)NS(=O)(=O)C6CC6)C[C@H]5/C=C\CCCCN(c5ccccc5)C(=O)[C@@H]4C3)cc(-c3nc(C(C)C)cs3)nc2c1C [Compound 1601] | > 8.00 | < 7.00
CC(C)n1c(O[C@@H]2C[C@H]3C(=O)N[C@]4(C(=O)NS(=O)(=O)C5(C)CC5)C[C@H]4/C=C\CCCCC[C@H](NC(=O)OC(C)(C)C)C(=O)N3C2)nc2c(-c3csc(-c4ccccc4)n3)cccc21 [Compound 1701] | > 8.00 | 7.00 to 8.00
CC(C)n1c(O[C@@H]2C[C@H]3C(=O)N[C@]4(C(=O)NS(=O)(=O)C5(C)CC5)C[C@H]4/C=C\CCCCC[C@H](NC(=O)OC(C)(C)C)C(=O)N3C2)nc2c(-c3csc(C4CC4)n3)cccc21 [Compound 1702] | > 8.00 | > 8.00
CC(C)n1c(O[C@@H]2C[C@H]3C(=O)N[C@]4(C(=O)NS(=O)(=O)C5(C)CC5)C[C@H]4/C=C\CCCCC[C@H](NC(=O)OC(C)(C)C)C(=O)N3C2)nc2c(-c3csc(-c4cc(F)cc(F)c4)n3)cccc21 [Compound 1703] | > 8.00 | 7.00 to 8.00
CC(C)n1c(O[C@@H]2C[C@H]3C(=O)N[C@]4(C(=O)NS(=O)(=O)C5(C)CC5)C[C@H]4/C=C\CCCCC[C@H](NC(=O)OC(C)(C)C)C(=O)N3C2)nc2c(-c3csc(N4CCOCC4)n3)cccc21 [Compound 1704] | > 8.00 | > 8.00
CC(C)n1c(O[C@@H]2C[C@H]3C(=O)N[C@]4(C(=O)NS(=O)(=O)C5(C)CC5)C[C@H]4/C=C\CCCCC[C@H](NC(=O)OC(C)(C)C)C(=O)N3C2)nc2c(-c3cnc(N4CCCC4)cn3)cccc21 [Compound 1705] | > 8.00 | > 8.00
CC(C)n1c(O[C@@H]2C[C@H]3C(=O)N[C@]4(C(=O)NS(=O)(=O)C5(C)CC5)C[C@H]4/C=C\CCCCC[C@H](NC(=O)OC(C)(C)C)C(=O)N3C2)nc2c(-c3csc(N4CCCCC4)n3)cccc21 [Compound 1706] | > 8.00 | > 8.00
CC(C)n1c(O[C@@H]2C[C@H]3C(=O)N[C@]4(C(=O)NS(=O)(=O)C5(C)CC5)C[C@H]4/C=C\CCCCC[C@H](NC(=O)OC(C)(C)C)C(=O)N3C2)nc2c(-c3cncnc3)cccc21 [Compound 1707] | > 8.00 | > 8.00

Compound | pIC50 [1] | pEC50 [2]
CC(C)n1c(O[C@@H]2C[C@H]3C(=O)N[C@]4(C(=O)NS(=O)(=O)C5(C)CC5)C[C@H]4/C=C\CCCCC[C@H](NC(=O)OC(C)(C)C)C(=O)N3C2)nc2c(-c3nc(-c4ccccc4)cs3)cccc21 [Compound 1708] | > 8.00 | > 8.00
Cc1ccc(-c2csc(-c3cccc4c3nc(O[C@@H]3C[C@H]5C(=O)N[C@]6(C(=O)NS(=O)(=O)C7(C)CC7)C[C@H]6/C=C\CCCCC[C@H](NC(=O)OC(C)(C)C)C(=O)N5C3)n4C(C)C)n2)cc1 [Compound 1709] | > 8.00 | 7.00 to 8.00
CC(C)n1c(O[C@@H]2C[C@H]3C(=O)N[C@]4(C(=O)NS(=O)(=O)C5(C)CC5)C[C@H]4/C=C\CCCCC[C@H](NC(=O)OC(C)(C)C)C(=O)N3C2)nc2c(-c3nc(-c4ccccc4F)cs3)cccc21 [Compound 1710] | > 8.00 | 7.00 to 8.00
CC(C)n1c(O[C@@H]2C[C@H]3C(=O)N[C@]4(C(=O)NS(=O)(=O)C5(C)CC5)C[C@H]4/C=C\CCCCC[C@H](NC(=O)OC(C)(C)C)C(=O)N3C2)nc2c(-c3nc(-c4ccc(F)cc4)cs3)cccc21 [Compound 1711] | > 8.00 | > 8.00
Cc1ccccc1-c1csc(-c2cccc3c2nc(O[C@@H]2C[C@H]4C(=O)N[C@]5(C(=O)NS(=O)(=O)C6(C)CC6)C[C@H]5/C=C\CCCCC[C@H](NC(=O)OC(C)(C)C)C(=O)N4C2)n3C(C)C)n1 [Compound 1712] | > 8.00 | > 8.00
Cc1cccc(-c2csc(-c3cccc4c3nc(O[C@@H]3C[C@H]5C(=O)N[C@]6(C(=O)NS(=O)(=O)C7(C)CC7)C[C@H]6/C=C\CCCCC[C@H](NC(=O)OC(C)(C)C)C(=O)N5C3)n4C(C)C)n2)c1 [Compound 1713] | > 8.00 | 7.00 to 8.00
CC(C)n1c(O[C@@H]2C[C@H]3C(=O)N[C@]4(C(=O)NS(=O)(=O)C5(C)CC5)C[C@H]4/C=C\CCCCC[C@H](NC(=O)OC(C)(C)C)C(=O)N3C2)nc2c(-c3nc(-c4ccccc4Cl)cs3)cccc21 [Compound 1714] | > 8.00 | 7.00 to 8.00
COc1ccc(-c2csc(-c3cccc4c3nc(O[C@@H]3C[C@H]5C(=O)N[C@]6(C(=O)NS(=O)(=O)C7(C)CC7)C[C@H]6/C=C\CCCCC[C@H](NC(=O)OC(C)(C)C)C(=O)N5C3)n4C(C)C)n2)cc1 [Compound 1715] | > 8.00 | 7.00 to 8.00
CC(C)n1c(O[C@@H]2C[C@H]3C(=O)N[C@]4(C(=O)NS(=O)(=O)C5(C)CC5)C[C@H]4/C=C\CCCCC[C@H](NC(=O)OC(C)(C)C)C(=O)N3C2)nc2c(-c3nc(-c4ccc(-c5ccccc5)cc4)cs3)cccc21 [Compound 1716] | > 8.00 | 7.00 to 8.00
Cc1ccc(-c2csc(-c3cccc4c3nc(O[C@@H]3C[C@H]5C(=O)N[C@]6(C(=O)NS(=O)(=O)C7(C)CC7)C[C@H]6/C=C\CCCCC[C@H](NC(=O)OC(C)(C)C)C(=O)N5C3)n4C(C)C)n2)c(C)c1 [Compound 1717] | > 8.00 | 7.00 to 8.00
Cc1cccc(Cc2csc(-c3cccc4c3nc(O[C@@H]3C[C@H]5C(=O)N[C@]6(C(=O)NS(=O)(=O)C7(C)CC7)C[C@H]6/C=C\CCCCC[C@H](NC(=O)OC(C)(C)C)C(=O)N5C3)n4C(C)C)n2)c1 [Compound 1718] | > 8.00 | > 8.00
Cc1ccc(Cc2csc(-c3cccc4c3nc(O[C@@H]3C[C@H]5C(=O)N[C@]6(C(=O)NS(=O)(=O)C7(C)CC7)C[C@H]6/C=C\CCCCC[C@H](NC(=O)OC(C)(C)C)C(=O)N5C3)n4C(C)C)n2)cc1 [Compound 1719] | > 8.00 | > 8.00
CC(C)n1c(O[C@@H]2C[C@H]3C(=O)N[C@]4(C(=O)NS(=O)(=O)C5(C)CC5)C[C@H]4/C=C\CCCCC[C@H](NC(=O)OC(C)(C)C)C(=O)N3C2)nc2c(-c3nc(Cc4ccccc4F)cs3)cccc21 [Compound 1720] | > 8.00 | > 8.00
CC(C)n1c(O[C@@H]2C[C@H]3C(=O)N[C@]4(C(=O)NS(=O)(=O)C5(C)CC5)C[C@H]4/C=C\CCCCC[C@H](NC(=O)OC(C)(C)C)C(=O)N3C2)nc2c(-c3nc(Cc4ccc(F)c(F)c4)cs3)cccc21 [Compound 1721] | > 8.00 | > 8.00
CC(C)n1c(O[C@@H]2C[C@H]3C(=O)N[C@]4(C(=O)NS(=O)(=O)C5(C)CC5)C[C@H]4/C=C\CCCCC[C@H](NC(=O)OC(C)(C)C)C(=O)N3C2)nc2c(-c3nc(Cc4cc(F)cc(F)c4)cs3)cccc21 [Compound 1722] | > 8.00 | 7.00 to 8.00
COc1ccc(Cc2csc(-c3cccc4c3nc(O[C@@H]3C[C@H]5C(=O)N[C@]6(C(=O)NS(=O)(=O)C7(C)CC7)C[C@H]6/C=C\CCCCC[C@H](NC(=O)OC(C)(C)C)C(=O)N5C3)n4C(C)C)n2)cc1OC [Compound 1723] | > 8.00 | > 8.00
CC(C)n1c(O[C@@H]2C[C@H]3C(=O)N[C@]4(C(=O)NS(=O)(=O)C5(C)CC5)C[C@H]4/C=C\CCCCC[C@H](NC(=O)OC(C)(C)C)C(=O)N3C2)nc2c(-c3nc(Cc4cccc(Cl)c4)cs3)cccc21 [Compound 1724] | > 8.00 | 7.00 to 8.00
